In assay [1] the test system is replicating M. tuberculosis. The conditions noted are these: reported values; cited from earlier work.
For another assay, the system named is M. avium. Particulars: Bermudez 2001; cited from earlier work.
A further assay relates to M. tuberculosis. Particulars: reported in vitro activity; cited from earlier work.
For assay [2], the system named is replicating M. tuberculosis. The experiment in a line: Aero RLU (Relative Light Units under aerobic conditions), replicating culture. It is filed as cell-based. Particulars: two experiments.
A further assay deals with M. avium complex. Description: Broth dilution MIC versus M. avium complex isolates. Format: cell-based, Mycobacterium avium. A general note: In broth dilution the organism is exposed to a series of concentrations in liquid medium.
The subject of assay [3] is replicating M. tuberculosis. Description: Microplate Alamar Blue Assay (MABA), replicating culture. It is filed as cell-based. The conditions noted are these: two experiments.
The test system of the next assay is M. avium LPR ATCC 49601. Description: Murine model of M. avium infection, CFU in spleens and lungs. It is filed as in vivo. The conditions noted are these: mice, 200 mg/kg orally 5 days/week for 4 weeks; P<0.05.
Assay [4] relates to P. falciparum NF54. The experiment in a line: In vitro P. falciparum 120 hour assay (96+24). Format: cell-based. The conditions noted are these: Plasmodium falciparum, NF54. On the procedure: EXAMPLE. In vitro and in vivo activity against different species of Plasmodium parasites. CEM-101 was tested against intra-erythrocytic forms of P. falciparum derived from asynchronous cultures of the strain […]. Parasite growth over 120 h was measured by the incorporation of radiolabelled [^3H]hypoxanthine (in hypoxanthine free culture medium) added after 96 h of drug incubation and 24 h prior to the termination of the test. CEM-101 was followed for 120 h. CEM-101 has delayed activity when compared to other agents.
In vitro P. falciparum data for CEM-101 in the 120 h Assay (96+24)

The test system of assay [5] is P. falciparum NF54. Description: In vitro P. falciparum 72 hour assay (48+24). It is filed as cell-based. The conditions noted are these: Plasmodium falciparum, NF54. On the procedure:
EXAMPLE. In vitro and in vivo activity against different species of Plasmodium parasites. CEM-101 was tested against intra-erythrocytic forms of P. falciparum derived from asynchronous cultures of the strain […]. […] CEM-101 was followed for 120 h. CEM-101 has delayed activity when compared to other agents.
In vitro P. falciparum data for CEM-101 in the 72 h Assay (48+24)

Values after ≈ are worked out from the molar mass of the structure shown. Values joined by “and” are separate entries in the source; they are usually repeats but may differ in a detail not shown here. Identical values can stand only once. Like-named read-outs stand apart in the source and are kept apart here.

As to `CC[C@H]1OC(=O)[C@H](C)C(=O)[C@H](C)[C@@H](O[C@@H]2O[C@H](C)C[C@H](N(C)C)[C@H]2O)[C@](C)(OC)C[C@@H](C)C(=O)[C@H](C)[C@H]2N(CCCCn3cnc(-c4cccnc4)c3)C(=O)O[C@]12C` [telithromycin], the “MABA MIC” value in [1] was 128 µg/mL. The “bactericidal activity against M. avium” value with M. avium was “lack of significant bactericidal activity”.

The MIC is the lowest concentration that inhibits growth of the organism. Turning to `CC[C@H]1OC(=O)[C@H](C)[C@@H](O[C@H]2C[C@@](C)(OC)[C@@H](O)[C@H](C)O2)[C@H](C)[C@@H](O[C@@H]2O[C@H](C)C[C@H](N(C)C)[C@H]2O)[C@](C)(OC)C[C@@H](C)C(=O)[C@H](C)[C@@H](O)[C@]1(C)O` [Clarithromycin, reference compound], the MIC in the assay on M. tuberculosis is 8 µg/mL (≈ 10.7 µM); against M. avium complex (Mycobacterium avium), 128 µg/mL (≈ 171 µM); in the assay with M. avium complex (Mycobacterium avium, isolate MAC 101, clarithromycin susceptible, read-out: MIC), 0.125 µg/mL (≈ 0.167 µM); in the assay with M. avium complex (Mycobacterium avium, isolate MAC 103, clarithromycin resistant, read-out: MIC), 64 µg/mL (≈ 85.6 µM); in the assay on M. avium complex (Mycobacterium avium, isolate MAC 108, clarithromycin resistant, read-out: MIC), 64 µg/mL (≈ 85.6 µM); with M. avium complex (Mycobacterium avium, isolate MAC 110, clarithromycin resistant, read-out: MIC), 64 µg/mL (≈ 85.6 µM). In addition, the MIC with M. avium complex (Mycobacterium avium, isolate MAC 216, clarithromycin resistant, read-out: MIC) came out at 32 µg/mL (≈ 42.8 µM); in the assay with M. avium complex (Mycobacterium avium, isolate MAC 309, clarithromycin resistant, read-out: MIC), 64 µg/mL (≈ 85.6 µM); in the assay on M. avium complex (Mycobacterium avium, isolate MAC 320, clarithromycin resistant, read-out: MIC), 64 µg/mL (≈ 85.6 µM); in the assay on M. avium complex (Mycobacterium avium, isolate MAC 623, clarithromycin resistant, read-out: MIC), 64 µg/mL (≈ 85.6 µM); with M. avium complex (Mycobacterium avium, isolate MAC 625, clarithromycin resistant, read-out: MIC), 64 µg/mL (≈ 85.6 µM); in the assay with M. avium complex (Mycobacterium avium, isolate MAC 643, clarithromycin resistant, read-out: MIC), 64 µg/mL (≈ 85.6 µM). Besides, the minimum inhibitory concentration (MIC) in the assay on M. avium complex (Mycobacterium avium, isolate MAC 1408, clarithromycin susceptible, read-out: MIC) was 0.25 µg/mL (≈ 0.334 µM); in the assay on M. avium complex (Mycobacterium avium, isolate MAC 3404.4, clarithromycin susceptible, read-out: MIC), 0.125 µg/mL (≈ 0.167 µM); in the assay with M. avium complex (Mycobacterium avium, isolate MAC 9141, clarithromycin susceptible, read-out: MIC) it was 0.25 µg/mL (≈ 0.334 µM); with M. avium complex (Mycobacterium avium, isolate MAC FAR, clarithromycin susceptible, read-out: MIC), 0.125 µg/mL (≈ 0.167 µM); in the assay with M. avium complex (Mycobacterium avium, isolate MAC GRL, clarithromycin susceptible, read-out: MIC), 2 µg/mL (≈ 2.67 µM); in the assay on M. avium complex (Mycobacterium avium, isolate MAC KAL, clarithromycin susceptible, read-out: MIC), 8 µg/mL (≈ 10.7 µM). Further, the MIC in the assay with M. avium complex (Mycobacterium avium, isolate MAC KZL, clarithromycin susceptible, read-out: MIC) came to 1 µg/mL (≈ 1.34 µM); with M. avium complex (Mycobacterium avium, isolate MAC Pry, clarithromycin resistant, read-out: MIC) it was 64 µg/mL (≈ 85.6 µM); with M. avium complex (Mycobacterium avium, isolate MAC SMT, clarithromycin susceptible, read-out: MIC) it was 0.25 µg/mL (≈ 0.334 µM); in the assay with M. avium complex (Mycobacterium avium, isolate MAC TEL, clarithromycin susceptible, read-out: MIC), 2 µg/mL (≈ 2.67 µM); in the assay on M. avium complex (Mycobacterium avium, isolate MAC TRY, clarithromycin susceptible, read-out: MIC), 0.5 µg/mL (≈ 0.668 µM); against M. avium complex (isolate MAC 224, clarithromycin resistant) it was 128 µg/mL (≈ 171 µM). The figures for the MIC in assay [3] (Mycobacterium tuberculosis) and in assay [3] were 14.5 µM (≈ 10.9 µg/mL) and 13.34 µM (≈ 9.98 µg/mL), respectively. For the same compound, the “Aero RLU” value in assay [2] is 22.46 µM and 18.82 µM. In addition, in assay [1], the “MABA MIC” value was 8 µg/mL. Also, in the assay on M. avium LPR ATCC 49601, the “reduction in growth of MAC LPR in the spleens and lungs compared to the late controls” value is given as “significant”.

The term IC50 denotes the concentration at which inhibition is half-maximal. Take `CCN(CC)CCCC(C)Nc1ccnc2cc(Cl)ccc12` (stereo not shown) [Chloroquine]: the IC50 was determined as 0.0047 µg/mL (≈ 0.0147 µM) in the assay with P. falciparum NF54 [4] (120 h assay (96+24), read-out: IC50 NF54); 0.0046 µg/mL (≈ 0.0144 µM) with P. falciparum NF54 [4] (120 hour assay (96+24), read-out: IC50 NF54 Test 1); 0.0046 µg/mL (≈ 0.0144 µM) in the assay on P. falciparum NF54 [4] (120 hour assay (96+24), read-out: IC50 NF54 Test 2); 0.0047 µg/mL (≈ 0.0147 µM) in the assay with P. falciparum NF54 [4] (120 hour assay (96+24), read-out: IC50 NF54 Test 3); 0.0044 µg/mL (≈ 0.0138 µM) in the assay with P. falciparum NF54 [5] (72 h assay (48+24), read-out: IC50 NF54 TEST 1); 0.0054 µg/mL (≈ 0.0169 µM) in the assay with P. falciparum NF54 [5] (72 h assay (48+24), read-out: IC50 NF54 TEST 2). The concentration for half-maximal inhibition (IC50) in the assay on P. falciparum NF54 [5] (72 h assay (48+24), read-out: IC50 NF54 TEST 3) came to 0.0044 µg/mL (≈ 0.0138 µM); in the assay with P. falciparum NF54 [5] (72 h assay (48+24), read-out: IC50 NF54 TEST 4), 0.0048 µg/mL (≈ 0.015 µM); with P. falciparum NF54 [5] (72 hour assay (48+24), read-out: IC50 NF54 Test 1), 0.0044 µg/mL (≈ 0.0138 µM); in the assay with P. falciparum NF54 [5] (72 hour assay (48+24), read-out: IC50 NF54 Test 2), 0.0054 µg/mL (≈ 0.0169 µM); in the assay with P. falciparum NF54 [5] (72 hour assay (48+24), read-out: IC50 NF54 Test 3) it was 0.0044 µg/mL (≈ 0.0138 µM); in the assay with P. falciparum NF54 [5] (72 hour assay (48+24), read-out: IC50 NF54 Test 4), 0.0048 µg/mL (≈ 0.015 µM).
